Legend:
Panc-1 = assay: Cell viability assay, pancreatic carcinoma cell line Panc-1; format: cell-based; conditions: Homo sapiens; Panc-1 pancreatic carcinoma cell line
Protocol: (§1) Antitumor activity of the compounds and doxorubicin as a positive control was assessed by using the CellTiter-Blue Cell Viability Assay (Promega, #G8082) or CellTiter-Glow® Luminescent Cell Viability assay (Promega # G7572) according to the manufacturer's instructions. The compounds were tested at 5 or 6 concentrations in half-log increments (highest concentration 30 μM-100 μM) in duplicate or triplicate well conditions.
(§2) Tumor cells were grown at 37° C. in a humidified atmosphere with 5% CO2 in RPMI 1640 or DMEM medium, supplemented with 10% (v/v) fetal calf serum and 50 μg/ml gentamicin for up to 20 passages, and were passaged once or twice weekly. Cells were harvested using TrypLE or PBS buffer containing 1 mM EDTA, and the percentage of viable cells is determined using a CASY Model TT cell counter (OMNI Life Science). Cells were harvested from exponential phase cultures, counted and plated in 96 well flat-bottom microtiter plates at a cell density depending on the cell line's growth rate (4,000-20,000 cells/well depending on the cell line's growth rate, up to 60,000 for hematological cancer cell lines) in RPMI 1640 or DMEM medium supplemented with 10% (v/v) fetal calf serum and 50 μg/ml gentamicin (140 μl/well). Cultures were incubated at 37° C. and 5% CO2 in a humidified atmosphere. After 24 h, 10 μl of test compounds or control medium are added, and left on the cells for another 72 h. Compounds were serially diluted in DMSO, transferred in cell culture medium, and added to the assay plates. The DMSO concentration was kept constant at <0.3% v/v across the assay plate. Viability of cells was quantified by the CellTiter-Blue® cell viability assay (Promega G8081) or CellTiter-Glow® Luminescent Cell Viability assay (Promega # G7572). Fluorescence (FU) was measured by using the EnSpire® multimode plate reader (Perkin Elmer) (excitation λ=570 nm, emission λ=600 nm) or luminescent detection of ATP in viable cells was used as parameter for proliferation. Luminescence was measured with the microplate luminometer (Promega or Perkin Elmer).
(§3) Sigmoidal concentration-response curves were fitted to the data points (test-versus-control, T/C values) obtained for each tumor model using 4 parameter non-linear curve fit (Charles River DRS Datawarehouse Software) or with GraphPad prism 5.02 software. IC50 values are reported as absolute IC50 values, being the concentration of test compound at the intersection of the concentration-response curves with T/C=50%

H69AR [1] = assay: Cell viability assay, resistant small cell lung carcinoma cell line H69AR; format: cell-based; conditions: H69AR multiple drug resistant small cell lung carcinoma cell line
Protocol: as §1, §2, §3
The multiple drug resistant cell line H69AR obtained from ATCC, was established from NCI-H69 cells that were grown in the presence of increasing concentrations of adriamycin (doxorubicin). The H69AR cell line is approximately 50-fold resistant to adriamycin as compared to the parental NCI-H69 cell line. SND141, SND142, SND143, SND146, SND147 and SND148 inhibited the resistant cell line H69AR with IC50s below 5 μM, as presented in Table 8.

MIA-Pa-Ca-2 = assay: Cell viability assay, pancreatic carcinoma cell line MIA-Pa-Ca-2; format: cell-based; conditions: Homo sapiens, MIA PaCa-2; MIA-Pa-Ca-2 pancreatic carcinoma cell line
Protocol: as §1, §2, §3

[2] = In vivo maximum tolerated dose in NOG mice; conditions: for tolerability at the highest dose administered: 8-10 mg/kg i.p., daily or every other day over 8 days; for MTD at 8 days: mouse, in vivo, ip, repeated i.p. administration, MTD not reached, read-out: maximum tolerated dose (MTD), estimated
Protocol: In order to evaluate the general toxicity of selected SND compounds in an animal model, a maximum tolerated dose (MTD) in NOG mice has been undertaken. Three mice per group were treated daily or every other day over 8 days at various doses between 5 mg/kg and 10 mg/kg. Administration of the compounds was i.p. A stock solution of the compounds (40 mg/ml in DMSO) was prepared and frozen at −20° C. in aliquots for each treatment. […] Body weights were measured before each treatment. Mice were further observed for 1 week after the last treatment.

CH-17-0098 = assay: PDX cytotoxicity assay, bile duct PDX CH-17-0098; format: cell-based
Protocol: PDX-derived cell cultures were obtained from tumors explanted from mice and isolated by mechanical and enzymatic dissociation. […] Cells were harvested and seeded in 96-wells plates at a density of 1.25 to 5×10^3 cells/well for cytotoxicity assays. Cells were incubated 48 h at 37° C. prior to addition of test molecules and vehicle (DMSO, 0.1%) at desired final concentrations. Cell viability was assessed before drugs' addition (T0) and 5 days after test molecules addition by measuring ATP cell content using CellTiter-Glo® Luminescent Cell Viability Assay (Promega) according to the manufacturer's instructions. Luciferase activity was measured on a luminometer (PerkinElmer® EnVision™). Each concentration of compounds was tested in triplicate.
Viability was calculated as a percentage of ATP value compared to vehicle treated controls.
For PDX primary cell cultures, the tumour tissue was washed with PBS containing antibiotic-antimycotic and non-tumour tissue and necrotic tumour tissues were separated. The tumour tissue was transferred to a new dish and cut into 1˜2 mm^3 fragments, resuspended in RPMI-1640 medium and centrifuged at 1,200 rpm for 6 min at room temperature. The pelleted material was resuspended with 15 mL of Tumour Cell Digestion Solution and incubated at 37° C. for 1 hour with agitation. […]

[3] = test system: pancreatic carcinoma cell; assay: Cell viability assay, pancreatic carcinoma cell lines (summary); format: cell-based; conditions: summary of Table 12; read-out: IC50s, pancreatic carcinoma cell growth
Protocol: as §1, §2, §3

H69AR [4] = conditions: H69AR from ATCC, vs parental NCI-H69; cited from earlier work
RXF 486 = assay: Cell viability assay, MDR renal carcinoma patient derived line RXF 486; format: cell-based; conditions: RXF 486 MDR renal carcinoma patient derived line
Protocol: as §1
(§4) Tumor cells were grown at 37° C. in a humidified atmosphere with 5% CO2 in RPMI 1640 or DMEM medium, supplemented with 10% (v/v) fetal calf serum and 50 μg/ml gentamicin for up to 20 passages, and were passaged once or twice weekly. Cells were harvested using TrypLE or PBS buffer containing 1 mM EDTA, and the percentage of viable cells is determined using a CASY Model TT cell counter (OMNI Life Science). Cells were harvested from exponential phase cultures, counted and plated in 96 well flat-bottom microtiter plates at a cell density depending on the cell line's growth rate (4,000-20,000 cells/well depending on the cell line's growth rate, up to 60,000 for hematological cancer cell lines) in RPMI 1640 or DMEM medium supplemented with 10% (v/v) fetal calf serum and 50 μg/ml gentamicin (140 μl/well). […] Viability of cells was quantified by the CellTiter-Blue® cell viability assay (Promega G8081) or CellTiter-Glow® Luminescent Cell Viability assay (Promega # G7572). […]

lung carcinoma cell = assay: Cell viability assay, lung carcinoma cell lines (summary); format: cell-based; conditions: summary of Tables 7A-E; read-out: IC50s, lung carcinoma cell growth
Protocol: as §1, §2, §3

CALU-6 = assay: Cell viability assay, non-small cell lung carcinoma cell line CALU-6; format: cell-based; conditions: Homo sapiens; CALU-6 non-small cell lung carcinoma cell line
Protocol: as §1, §2, §3

NCI-H1299 = assay: Cell viability assay, non-small cell lung carcinoma cell line NCI-H1299; format: cell-based; conditions: Homo sapiens
Protocol: as §1, §2, §3

SK-OV-3 = assay: Cell viability assay, ovarian carcinoma cell line SK-OV-3; format: cell-based
Protocol: as §1, §4

melanoma cell lines = assay: Cell viability assay, melanoma cell lines (summary); format: cell-based; conditions: summary of Tables 14A and 14B; read-out: IC50s, melanoma cell lines growth
Protocol: as §1, §2, §3

IMR-5-75 = assay: Cell viability assay, brain carcinoma cell line IMR-5-75; format: cell-based; conditions: IMR-5-75 brain carcinoma cell line
Protocol: as §1, §4

MeWo = assay: Cell viability assay, melanoma cell line MeWo; format: cell-based; conditions: Homo sapiens
Protocol: as §1
as §2, with “Elmer). […]” for “Elmer).”

A375 = assay: Cell viability assay, melanoma cell line A375; format: cell-based; conditions: Homo sapiens, A-375
Protocol: as §1, §2, §3

Structure (SMILES)	IC50 (Panc-1) [µM]	IC50 (H69AR [1]) [µM]	IC50 (H69AR [1]; Homo sapiens, H69AR) [µM]	IC50 (MIA-Pa-Ca-2) [µM]	tolerability at the highest dose administered [2]	MTD at 8 days [2] [mg/kg]	IC50 [3] [µM]	IC50 (RXF 486) [µM]	IC50 (lung carcinoma cell) [µM]	further results
COc1c(O)ccc2c(=O)cc(-c3ccc(CCCCN4CCCCC4)cc3)oc12 [SND148, 7-hydroxy-8-methoxy-2-(4-(4-(piperidin-1-yl)butyl)phenyl)-4H-chromen-4-one]	2.3	2.5	< 5	2.21	well tolerated	> 10	< 10	–	–	IC50 (CH-17-0098): 13.9 µM
COc1cccc2c1C(=O)c1c(O)c3c(c(O)c1C2=O)C[C@@](O)(C(=O)CO)C[C@@H]3O[C@H]1C[C@H](N)[C@H](O)[C@H](C)O1 [adriamycin]	–	–	–	–	–	–	–	–	–	resistance of H69AR compared to the parental NCI-H69 cell line (H69AR [4]): approximately 50 fold
COc1c(O)ccc2c(=O)cc(-c3ccc(CCCCN(C)CCN4CCCCC4)cc3)oc12 [SND146, 7-Hydroxy-8-methoxy-2-(4-(4-(methyl(2-(piperidin-1-yl)ethyl)amino)butyl)phenyl)-4H-chromen-4-one]	1.2	–	–	0.87	–	–	< 10	0.4	< 20	IC50 (CALU-6): 17.2 µM
COc1c(O)ccc2c(=O)cc(-c3ccc(CCCCN4CCCC4)cc3)oc12 [SND143, 7-hydroxy-8-methoxy-2-(4-(4-(pyrrolidin-1-yl)butyl)phenyl)-4H-chromen-4-one]	6.09	3.3	< 5	4.96	well tolerated	> 10	< 10	1.3	–	–
COc1c(O)ccc2c(=O)cc(-c3ccc(CCCCNCCNCCCN)cc3)oc12 [SND211]	–	–	–	–	–	–	–	–	< 20	IC50 (NCI-H1299): 1.8 µM; IC50 (SK-OV-3; Homo sapiens, SK-OV-3, SK-OV-3 ovarian carcinoma cell line): < 20 µM; IC50 (SK-OV-3; SK-OV-3 ovarian carcinoma cell line): 10.6 µM; IC50 (melanoma cell lines): < 10 µM; IC50 (IMR-5-75): 1.5 µM; IC50 (MeWo): 5.3 µM; IC50 (A375): 1.8 µM

— patent publication US20240132461A1, “FLAVONE DEAZA SPERMIDINE ANALOGUES AND THEIR USE TREATING CANCER” (FLORATEK PHARMA S.A., priority 2021, published 2024)
